Consider 5 compounds from patent US11419335B2, “N-arylated analogues and uses thereof” (University of Florida Research Foundation, Incorporated, priority 2016, dated 2022).

As a reminder, the MIC is the smallest concentration in the dilution series that meets the test's criterion for growth inhibition.

Like-named read-outs stand apart in the source and are kept apart here.

In assay [1] the test system is Escherichia coli clinical isolate (UAEC-1). Put plainly: MIC broth microdilution, UAEC-1. Format: cell-based. The following applies: for MIC UAEC-1: Table 4; for MIC: Table 1. The protocol:
(§1) The minimum inhibitory concentration (MIC) for each tested compound was determined by the broth microdilution method as recommended by the Clinical and Laboratory Standards Institute (CLSI). In a 96-well plate, eleven two-fold serial dilutions of each compound were made in a final volume of 100 μL Luria Broth. Each well was inoculated with ˜10^5 bacterial cells at the initial time of incubation, prepared from a fresh log phase culture (OD600 of 0.5 to 1.0 depending on bacterial strain). The MIC was defined as the lowest concentration of compound that prevented bacterial growth after incubating 16 to 18 hours at 37° C. (MIC values were supported by spectrophotometric readings at OD600). DMSO served as our vehicle and negative control in each microdilution MIC assay. DMSO was serially diluted with a top concentration of 1% v/v.
as §1, with “for each compound was” for “for each tested compound was”, “Standards Institute (CLSI).^6 In a” for “Standards Institute (CLSI). In a”, “concentration of test compound that” for “concentration of compound that”, “37° C. The concentration range tested for each compound during this study was 0.10 to 100 μM. DMSO served” for “37° C. (MIC values were supported by spectrophotometric readings at OD600). DMSO served”, “1% v/v. All MIC values were obtained from a minimum of three independent experiments.” for “1% v/v.”
Background: Dilution methods test growth across graded concentrations, often in twofold steps.

Assay [2] concerns Klebsiella pneumoniae (ATCC 13883). Put plainly: MIC broth microdilution, K. pneumoniae 13883. The format is cell-based. The protocol: as §1
as §1, with “for each compound was” for “for each tested compound was”, “Standards Institute (CLSI).^6 In a” for “Standards Institute (CLSI). In a”, “concentration of test compound that” for “concentration of compound that”, “37° C. The concentration range tested for each compound during this study was 0.10 to 100 μM. DMSO served” for “37° C. (MIC values were supported by spectrophotometric readings at OD600). DMSO served”, “1% v/v. All MIC values were obtained from a minimum of three independent experiments.” for “1% v/v.”

The next assay deals with MRSA BAA-1707 biofilms. In words: Live/Dead staining of MRSA biofilms. The format is cell-based, Staphylococcus aureus. How it is done: A mid-log culture of MRSA BAA-1707 was diluted 1:1000-fold and 500 μL was transferred to each compartment of a four-compartment CELLview dish (Greiner Bio-One 627871). The dish was then incubated for 24 hours at 37° C. to establish MRSA-1707 biofilms. After this time, the cultures were removed and the plate was washed with 0.9% saline. The dish was then treated with test compounds in fresh media at various concentrations. DMSO was used as a negative control in this assay. The dish was incubated with the test compound for 24 hours at 37° C. After this time, the cultures were removed and the dish was washed with 0.9% saline for 2 minutes. Saline was then removed and 500 μL of the stain (Live/Dead BacLight Viability Kit, Invitrogen) were added for 15 minutes and left in the dark. After this time, the stain was removed and the dish was washed twice with 0.9% saline. Then the dish was fixed with 500 μL 4% paraformaldehyde in PBS for 30 minutes. Images of remaining MRSA biofilms were then taken with a fluorescence microscope.

Assay [3] relates to MRSA BAA-1707 stationary cultures. In words: MRSA persister cell kill kinetics (stationary cultures). Format: cell-based, Staphylococcus aureus. Particulars: 50 μM; after 90 minutes. The protocol: An overnight culture of MRSA BAA-1707 was diluted in fresh TSBG (1:13 to 1:20 fold) and allowed to grow with shaking. Once the culture reached stationary phase (4-6 hours), test compounds were added at a final test concentration of 50 μM. The cultures were incubated with shaking at 250 rpm and aliquots were removed and plated out at predetermined time points. Colony forming units (CFU) per milliliter data was recorded and plotted using Graphpad Prism 6.0.
The panel of membrane-active compounds was also evaluated head-to-head at 50 μM against MRSA BAA-1707 stationary cultures in kinetic killing experiments. Stationary cultures of S. aureus have elevated populations of metabolically dormant persister cells^36,37 and using this experiment, we could get multiple early time points to see if 1 and 2 were rapid killers of MRSA persister cells.
An overnight culture of MRSA BAA-1707 was diluted in fresh TSBG (1:13 to 1:20 fold) and allowed to grow with shaking. Once the culture reached stationary phase (4-6 hours), test compounds were added at a final test concentration of 50 μM. The cultures were incubated with shaking at 250 rpm and aliquots were removed and plated out at different time points. Colony forming units (CFU) per milliliter data was recorded and plotted using Graphpad Prism 6.0.

For the compound `CCCCCCCCCCCCCCCC[N+](C)(C)Cc1ccccc1.[Cl-]` [BAC-16, reference compound], the “MIC UAEC-1” value in assay [1] came to 6.25 µM. Further, the “MIC K. pneu. 13883” value in assay [2] (Table 4) is recorded as 9.38a micromolar.
For `CCCCCCCCCCCCCCCCn1cc[n+](C)c1C.[I-]` [Compound 8], in that order: 12.5 µM and 12.5 µM.
For `CCCCCCCCCCCCCCCCn1cc[n+](CCO)c1C.[Br-]` [Compound 11], in that order: 12.5 µM and 18.8a micromolar.
As for `CCCCCCCCCCCCCCCCn1cc[n+](Cc2ccccc2)c1C` [NH125, 3-benzyl-1-hexadecyl-2-methyl-1H-imidazol-3-ium bromide, reference compound], the MIC came to 18.8 µM in assay [1] (Escherichia coli); 18.8 µM in assay [2] (Klebsiella pneumoniae, ATCC13883, Table 1, read-out: MIC K. pneumoniae 13883); 18.8 µM in assay [2] (Klebsiella pneumoniae, ATCC13883, Table 4, read-out: MIC K. pneu. 13883). In addition, the “MIC UAEC-1” value in assay [1] was determined as 18.8a micromolar. The “clearance of MRSA biofilms (fluorescence images)” value with MRSA BAA-1707 biofilms (FIG. 4, 24 hours after treatment) is reported as “potent clearance of MRSA biofilms”. Besides, the “clearance of established biofilms (Live/Dead staining)” value in the assay on MRSA BAA-1707 biofilms (at 31.3 μM) is “effective clearance of established biofilms”. Besides, in assay [3], the “reduction of stationary MRSA cells” value is about 1 logs.
As to `CCCCCCCCCCCC[N+](C)(C)CC[N+](C)(C)CC[N+](C)(C)CCCCCCCCCCCC` [QAC-10, reference compound], in assay [1], the MIC is given as 12.5 µM and the “MIC UAEC-1” value is 12.5 µM. The MIC in assay [2] (Table 1, read-out: MIC K. pneumoniae 13883) is listed as 25 µM. In assay [2] (Table 4), the “MIC K. pneu. 13883” value amounted to 25 µM.
